Assay results as given in patent US6348205B1, “Use of carbonic acid for stabilizing or increasing the epidermal ceramide synthesis rate” (Beiersdorf AG, priority 1997, dated 2002).
Read-outs that look alike come from different tables or passages of the source.

Experiments:
[1] = tested on: irritated skin (epidermal permeability barrier)
Protocol: (§1) For the standardized washing, a normal commercially available shampoo which, according to the manufacturer, contains […] active cleansing substances was diluted with distilled water until it contained 10% active cleansing substances in the solution ready for use.
(§2) Tap water was used for the part-affusions with pure water.
(§3) The carbonated water employed was mechanically produced using an impregnation device in which tap water was supplemented with carbon dioxide under elevated pressure.
(§4) All the part-affusions take place at a temperature of 37° C.
(§5) The test was carried out as unilateral test on 20 test subjects (13 women and 7 men between 23 and 28 years of age). The volunteer test subjects were not subjected to any selection conditions apart from right-handedness. For random distribution, one half of the participants was treated with carbonic acid on the right hand and the other half was treated on the left hand.
(§6) Over a period of 2 weeks, the back of one hand of the test subjects was rinsed with carbonic acid for 1 min once a day. The other was rinsed with pure water as control. At the same time, the backs of both hands were repeatedly irritated by a standardized washing with the shampoo solution twice a day.
(§7) The effect of carbonic acid or pure water on the dermatophysiological parameters of irritated skin was measured using noninvasive dermatophysiological investigation methods.
(§8) The transepidermal water loss (TEWL) as a measure of the permeability barrier function was measured using the evaporimetry method. An EP1 evaporimeter (Servomed & Co., Hasselby, Stockholm, Sweden) was used. The relative skin hydration (RSH) was measured using the capacitance measurement method. A CM 820 PC corneometer (Courage & Khazaka Electronic GmbH, Cologne, Germany) was used. The measurements have been reported as mean of 2 recordings (evaporimetry) or 3 recordings (corneometry).
(§9) All the tests took place in the partially air-conditioned dermatophysiology laboratory at Osnabrück University.

[2] = tested on: irritated skin; conditions: 2 weeks, 1 min rinse once a day, washing with shampoo solution twice a day; backs of hands
Protocol: as §1, §2, §3, §4, §5, §6, §7, §8, §9

[3] = tested on: epidermal ceramide synthesis; conditions: SLS-irritated forearm; for values for the ceramide fraction (peak areas) versus test area treated with pure water: 1 min rinse daily, WILCOXON paired differences test
Protocol: On the first investigation date, test plasters with 60 μl of 1% strength sodium lauryl sulfate (conventional synthetic surfactant frequently used in dermatological irritability research) were stuck onto in each case 3 test sites on the right and left forearm, and the epidermal lipids (baseline values before irritation) were obtained in vivo on the 4th test site on the right and left forearm. After 24 h, the test plasters were removed and all the previously irritated test sites were again irritated with sodium lauryl sulfate with occlusion for 24 h.
The intention of the cumulative irritation with sodium lauryl sulfate for 2×24 h on two consecutive days was initially to induce disturbance of the epidermal barrier, including damage to the epidermal lipid lamellae.
On the first investigation day after the irritation (Monday), the rinsing was preceded by in vivo delipidation in each case of one irritated test site on the forearm to be treated with carbonic acid and that to be treated with pure water.
Pure water was used on the comparison side for reasons of standardization. […] Use of pure water on the comparison side thus makes it possible to state that the effects which are found are attributable exclusively to the carbonic acid.
The eluate of solvent and epidermal lipids obtained in vivo was initially evaporated under nitrogen, and the epidermal lipids were then frozen. In this way, the samples for chromatography were initially collected from all the subjects during the investigations.
For the investigations by thin-layer chromatography, the 8 samples from each subject were thawed and, using different concentrations of the standard mixture, developed and detected on a thin-layer plate.
Determination of the lipid pattern before irritation, immediately after irritation and after use for one week and two weeks of carbonic acid or pure water makes it possible to make detailed statements about the regeneration of the epidermal barrier and any effects of the use of carbonic acid on individual lipid fractions of the epidermal barrier lipids. […]

## O=C(O)O [carbonic acid]
[1]; 2 weeks, 1 min rinse once a day, washing with shampoo solution twice a day, backs of hands
  increase in TEWL (comparison of medians) versus pure water: smaller increase in the TEWL
[1]; 30 min after use, all days with the exception of the first day, P<0.05
  TEWL 30 min after use versus test regions treated with pure water: significantly lower
[1]; on days 3, 6, 7 and 8, values before daily use, WILCOXON paired differences test, P<0.05
  TEWL values versus test area treated with pure water: significantly lower
[2]
  baseline values of the RSH and RSH 30 min after use versus pure water: higher (in some cases significantly higher)
[3]; after treatment for one and two weeks
  values for the ceramide fraction (peak areas) after the treatments versus baseline values: significantly higher than the baseline values
[3]; after treatment for one week
  values for the ceramide fraction (peak areas) versus test area treated with pure water: higher, nearly significantly so (p<0.05)
[3]; after treatment for two weeks
  values for the ceramide fraction (peak areas) versus test area treated with pure water: significantly so (p<0.01)
